Activity calls are given as the source filed them. No cut-off for these calls is given here.
Tests used:
PC-3 = assay: Cytotoxicity against human PC-3 cells assessed as reduction in cell viability after 96 hrs by MTT assay; assay type: functional, cell-based; conditions: PC-3, 96 h
HL-60 [1] = assay: Antiproliferative activity against human HL-60 cells assessed as cell growth inhibition after 72 hrs by trypan blue staining based cell counting assay; assay type: functional; conditions: HL-60, 72 h
HL-60 [2] = assay: Upregulation of acetylated H3 level in human HL-60 cells at 2 uM measured after 12 hrs by Western blot analysis; assay type: functional, cell-based
HL-60 [3] = assay: Induction of apoptosis in human HL-60 cells assessed as increase in accumulation at sub-G1 phase at 0.5 uM after 24 hrs by propidium iodide staining based flow cytometry (reference value: 2.72 %); assay type: functional
HL-60 [4] = assay: Induction of apoptosis in human HL-60 cells assessed as late apoptotic cells at 0.5 uM measured after 24 hrs by Annexin-V/FITC and propidium iodide staining based flow cytometry (reference value: 7.24 %); assay type: functional
HL-60 [5] = assay: Induction of apoptosis in human HL-60 cells assessed as live cells at 1 uM measured after 24 hrs by Annexin-V/FITC and propidium iodide staining based flow cytometry (reference value: 89.29 %); assay type: functional
HL-60 [6] = assay: Induction of apoptosis in human HL-60 cells assessed as late apoptotic cells at 1 uM measured after 24 hrs by Annexin-V/FITC and propidium iodide staining based flow cytometry (reference value: 7.24 %); assay type: functional
HL-60 [7] = assay: Induction of apoptosis in human HL-60 cells assessed as live cells at 0.5 uM measured after 24 hrs by Annexin-V/FITC and propidium iodide staining based flow cytometry (reference value: 89.29 %); assay type: functional
HL-60 [8] = assay: Induction of apoptosis in human HL-60 cells assessed as increase in accumulation at sub-G1 phase at 1 uM after 24 hrs by propidium iodide staining based flow cytometry (reference value: 2.72 %); assay type: functional
HL-60 [9] = assay: Induction of apoptosis in human HL-60 cells assessed as late apoptotic cells at 2 uM measured after 24 hrs by Annexin-V/FITC and propidium iodide staining based flow cytometry (reference value: 7.24 %); assay type: functional
HL-60 [10] = assay: Induction of apoptosis in human HL-60 cells assessed as live cells at 2 uM measured after 24 hrs by Annexin-V/FITC and propidium iodide staining based flow cytometry (reference value: 89.29 %); assay type: functional
HL-60 [11] = assay: Induction of apoptosis in human HL-60 cells assessed as necrotic cells at 1 uM measured after 24 hrs by Annexin-V/FITC and propidium iodide staining based flow cytometry (reference value: 1.01 %); assay type: functional
HL-60 [12] = assay: Induction of apoptosis in human HL-60 cells assessed as necrotic cells at 0.5 uM measured after 24 hrs by Annexin-V/FITC and propidium iodide staining based flow cytometry (reference value: 1.01 %); assay type: functional
HL-60 [13] = assay: Induction of apoptosis in human HL-60 cells assessed as increase in accumulation at sub-G1 phase at 2 uM after 24 hrs by propidium iodide staining based flow cytometry (reference value: 2.72 %); assay type: functional
HL-60 [14] = assay: Induction of apoptosis in human HL-60 cells assessed as early apoptotic cells at 0.5 uM measured after 24 hrs by Annexin-V/FITC and propidium iodide staining based flow cytometry (reference value: 2.46 %); assay type: functional
HL-60 [15] = assay: Induction of apoptosis in human HL-60 cells assessed as early apoptotic cells at 1 uM measured after 24 hrs by Annexin-V/FITC and propidium iodide staining based flow cytometry (reference value: 2.46 %); assay type: functional
HL-60 [16] = assay: Induction of apoptosis in human HL-60 cells assessed as necrotic cells at 2 uM measured after 24 hrs by Annexin-V/FITC and propidium iodide staining based flow cytometry (reference value: 1.01 %); assay type: functional
HL-60 [17] = assay: Induction of apoptosis in human HL-60 cells assessed as early apoptotic cells at 2 uM measured after 24 hrs by Annexin-V/FITC and propidium iodide staining based flow cytometry (reference value: 2.46 %); assay type: functional
HL-60 [18] = assay: Upregulation of acetylated alpha-tubulin level in human HL-60 cells at 2 uM measured after 12 hrs by Western blot analysis; assay type: functional, cell-based

IC50 (HL-60 [1]) [µM]	SMILES	IC50 (PC-3) [µM]	also measured
2.77	CC1(C)[C@@H](O)CC[C@]2(C)[C@H]3C(=O)C=C4[C@@H]5C[C@@](C)(C(=O)OCCCOc6ccc(NC(=O)CCCCCCC(=O)NO)cc6)CC[C@]5(C)CC[C@@]4(C)[C@]3(C)CC[C@@H]12	5.37	
15.5	CC1(C)[C@@H](O)CC[C@]2(C)[C@H]3C(=O)C=C4[C@@H]5C[C@@](C)(C(=O)NCCCCC(=O)NO)CC[C@]5(C)CC[C@@]4(C)[C@]3(C)CC[C@@H]12	18.5	
8.78	CC1(C)[C@@H](O)CC[C@]2(C)[C@H]3C(=O)C=C4[C@@H]5C[C@@](C)(C(=O)NCCCCCC(=O)NO)CC[C@]5(C)CC[C@@]4(C)[C@]3(C)CC[C@@H]12	13.6	
21.6	CC1(C)[C@@H](O)CC[C@]2(C)[C@H]3C(=O)C=C4[C@@H]5C[C@@](C)(C(=O)NCCCC(=O)NO)CC[C@]5(C)CC[C@@]4(C)[C@]3(C)CC[C@@H]12	25.1	
55.3	CC1(C)[C@@H](O)CC[C@]2(C)[C@H]3C(=O)C=C4[C@@H]5C[C@@](C)(C(=O)O)CC[C@]5(C)CC[C@@]4(C)[C@]3(C)CC[C@@H]12 [ENOXOLONE]	105	
4.79	CC1(C)[C@@H](O)CC[C@]2(C)[C@H]3C(=O)C=C4[C@@H]5C[C@@](C)(C(=O)N6CCN(c7ccc(NC(=O)CCCC(=O)NO)cc7)CC6)CC[C@]5(C)CC[C@@]4(C)[C@]3(C)CC[C@@H]12	11.8	
4.42	CC1(C)[C@@H](O)CC[C@]2(C)[C@H]3C(=O)C=C4[C@@H]5C[C@@](C)(C(=O)OCCOc6ccc(NC(=O)CCCCCCC(=O)NO)cc6)CC[C@]5(C)CC[C@@]4(C)[C@]3(C)CC[C@@H]12	8.43	
3.35	CC1(C)[C@@H](O)CC[C@]2(C)[C@H]3C(=O)C=C4[C@@H]5C[C@@](C)(C(=O)N6CCN(c7ccc(NC(=O)CCCCC(=O)NO)cc7)CC6)CC[C@]5(C)CC[C@@]4(C)[C@]3(C)CC[C@@H]12	5.53	
1.34	CC1(C)[C@@H](O)CC[C@]2(C)[C@H]3C(=O)C=C4[C@@H]5C[C@@](C)(C(=O)OCCCOc6ccc(NC(=O)CCCC(=O)NO)cc6)CC[C@]5(C)CC[C@@]4(C)[C@]3(C)CC[C@@H]12	4.43	
2.08	CC1(C)[C@@H](O)CC[C@]2(C)[C@H]3C(=O)C=C4[C@@H]5C[C@@](C)(C(=O)OCCOc6ccc(NC(=O)CCCCC(=O)NO)cc6)CC[C@]5(C)CC[C@@]4(C)[C@]3(C)CC[C@@H]12	8.22	
1.42	CC1(C)[C@@H](O)CC[C@]2(C)[C@H]3C(=O)C=C4[C@@H]5C[C@@](C)(C(=O)OCCCOc6ccc(NC(=O)CCCCC(=O)NO)cc6)CC[C@]5(C)CC[C@@]4(C)[C@]3(C)CC[C@@H]12	3.95	
9.53	CC1(C)[C@@H](O)CC[C@]2(C)[C@H]3C(=O)C=C4[C@@H]5C[C@@](C)(C(=O)NCCCCCCC(=O)NO)CC[C@]5(C)CC[C@@]4(C)[C@]3(C)CC[C@@H]12	11.8	
1.53	CC1(C)[C@@H](O)CC[C@]2(C)[C@H]3C(=O)C=C4[C@@H]5C[C@@](C)(C(=O)OCCOc6ccc(NC(=O)CCCC(=O)NO)cc6)CC[C@]5(C)CC[C@@]4(C)[C@]3(C)CC[C@@H]12	6.94	
1.79	CC1(C)[C@@H](O)CC[C@]2(C)[C@H]3C(=O)C=C4[C@@H]5C[C@@](C)(C(=O)N6CCN(c7ccc(NC(=O)CCCCCC(=O)NO)cc7)CC6)CC[C@]5(C)CC[C@@]4(C)[C@]3(C)CC[C@@H]12	3.09	
1.35	COC(=O)[C@@]1(C)CC[C@]2(C)CC[C@]3(C)C(=CC(=O)[C@@H]4[C@@]5(C)C=C(C#N)C(=O)C(C)(C)[C@@H]5CC[C@]43C)[C@@H]2C1	1.68	Activity (HL-60 [2]): inactive; Activity (HL-60 [3]): 2.91%; Activity (HL-60 [4]): 9%; Activity (HL-60 [5]): 81.11%; Activity (HL-60 [6]): 13.31%; Activity (HL-60 [7]): 87.34%; Activity (HL-60 [8]): 3.57%; Activity (HL-60 [9]): 16.96%; Activity (HL-60 [10]): 77.42%; Activity (HL-60 [11]): 2.31%; Activity (HL-60 [12]): 1.89%; Activity (HL-60 [13]): 19.18%; Activity (HL-60 [14]): 1.77%; Activity (HL-60 [15]): 3.27%; Activity (HL-60 [16]): 3.1%; Activity (HL-60 [17]): 2.52%
0.72	CC1(C)[C@@H](O)CC[C@]2(C)[C@H]3C(=O)C=C4[C@@H]5C[C@@](C)(C(=O)N6CCN(c7ccc(NC(=O)CCCCCCC(=O)NO)cc7)CC6)CC[C@]5(C)CC[C@@]4(C)[C@]3(C)CC[C@@H]12	2.48	
1.62	CC1(C)[C@@H](O)CC[C@]2(C)[C@H]3C(=O)C=C4[C@@H]5C[C@@](C)(C(=O)OCCCOc6ccc(NC(=O)CCCCCC(=O)NO)cc6)CC[C@]5(C)CC[C@@]4(C)[C@]3(C)CC[C@@H]12	4.31	
	O=C(CCCCCCC(=O)Nc1ccccc1)NO [VORINOSTAT]		Activity (HL-60 [2]): Active; Activity (HL-60 [3]): 2.07%; Activity (HL-60 [4]): 8.95%; Activity (HL-60 [5]): 82.27%; Activity (HL-60 [6]): 12.96%; Activity (HL-60 [7]): 86.69%; Activity (HL-60 [8]): 5.34%; Activity (HL-60 [9]): 39.71%; Activity (HL-60 [10]): 49.4%; Activity (HL-60 [11]): 2.36%; Activity (HL-60 [12]): 1.94%; Activity (HL-60 [13]): 43.31%; Activity (HL-60 [14]): 2.41%; Activity (HL-60 [15]): 2.42%; Activity (HL-60 [16]): 5.87%; Activity (HL-60 [18]): Active; Activity (HL-60 [17]): 5.02%
2.83	CC1(C)[C@@H](O)CC[C@]2(C)[C@H]3C(=O)C=C4[C@@H]5C[C@@](C)(C(=O)OCCOc6ccc(NC(=O)CCCCCC(=O)NO)cc6)CC[C@]5(C)CC[C@@]4(C)[C@]3(C)CC[C@@H]12	3.68	

From ChEMBL document CHEMBL4680138, “A 18β-glycyrrhetinic acid conjugate with Vorinostat degrades HDAC3 and HDAC6 with improved antitumor effects” (Eur J Med Chem, 2020)
